Experimental data as given in article PMC2637266, “Quantification of gamma-secretase modulation differentiates inhibitor compound selectivity between two substrates Notch and amyloid precursor protein” (Molecular Brain, 2008).
Entries after “also recorded” stand apart in the source; their conditions may differ. Like-named read-outs stand apart in the source and are kept apart here.

Legend:
zebrafish embryos = experiment: Zebrafish embryo treatment, tail curvature phenotype; type: in vivo; conditions: 50 μM; for embryo morphology, tail curvature: 24 hpf to 48 hpf, 28°C; for embryo morphology, tail curvature at 4 dpf: kept for four days
Description: Measurements of in vitro γ-secretase activity and cell-based Aβ/NICD generation have shown different inhibition potencies. To examine the inhibitory effect in vivo, zebrafish embryos were treated with DAPT or cpd E. Because different γ-secretase inhibitors may impact various metabolic pathways in zebrafish embryos, especially during development, the phenotypes of zebrafish embryos treated with high concentrations of DAPT and cpd E were compared. The major phenotype we examined was curved tail caused by defective somitogenesis.
Figure 4 Treatment of zebrafish embryos with DAPT causes curved tails. A. A stock of DAPT or cpd E in DMSO was diluted in embryo medium, and increasing concentrations of DAPT or cpd E were applied to de-chorionated zebrafish embryos incubated at 28°C from 24 hpf to 48 hpf. Control embryos were mock-treated with embryo medium containing the same concentration of DMSO. […] B. DAPT- or cpd E-treated embryos were kept until 4 dpf, and images were acquired at 40 × magnification.
Zebrafish embryos were raised and staged according to Kimmel, et al.. Compounds were dissolved in egg water at various final concentrations, and 0.5% DMSO was used as a negative control. Prior to the treatment at 24 hour post fertilization, embryos were de-chorionated manually. Embryos were placed in a 24-well plate (5–6 embryos/well) and treated with the compound containing egg water. Embryos were incubated at 28°C, and photographic images were taken at 2 days and 4 days post fertilization (dpf).
Compound-treated embryos were observed under an OLYMPUS SZX12 microscope. For examination, embryos were removed from the compound containing medium and placed into 0.4% tricane (3-amino benzoic acidethylester, Sigma, St. Louis, MO) solution. Upon anesthetizing, embryos were placed in 3% methylcellulose for positioning and images were recorded with OLYMPUS Q-COLOR3 camera. Images were taken at the 40× magnification for embryos at 2 and 4 dpf.

[1] = target: T1, γ-secretase cleavage of APP C100-Flag (Homo sapiens, UniProt P49768); experiment: In vitro γ-secretase activity assay, Aβ generated from C100-Flag, ELISA; type: biochemical; conditions: for γ-secretase cleavage of APP in vitro at low concentrations: 0.1 nM to 10 nM; for IC50: C100-Flag, 37°C, 4 hr; for Aβ production in vitro, dose response: C100Flag, increasing concentrations
T1 construct: substrate made in E. coli
T1 sequence (Q96BI3 whole entry, other chains not shown): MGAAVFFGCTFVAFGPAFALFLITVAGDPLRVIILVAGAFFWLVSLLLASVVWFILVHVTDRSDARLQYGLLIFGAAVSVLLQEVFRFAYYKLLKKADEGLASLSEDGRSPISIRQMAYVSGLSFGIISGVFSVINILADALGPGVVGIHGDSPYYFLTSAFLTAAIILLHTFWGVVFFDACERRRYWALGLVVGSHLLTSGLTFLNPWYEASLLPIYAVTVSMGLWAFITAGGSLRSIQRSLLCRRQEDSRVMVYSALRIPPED
T1 sequence (Q92542 34-709, other chains not shown, further chain): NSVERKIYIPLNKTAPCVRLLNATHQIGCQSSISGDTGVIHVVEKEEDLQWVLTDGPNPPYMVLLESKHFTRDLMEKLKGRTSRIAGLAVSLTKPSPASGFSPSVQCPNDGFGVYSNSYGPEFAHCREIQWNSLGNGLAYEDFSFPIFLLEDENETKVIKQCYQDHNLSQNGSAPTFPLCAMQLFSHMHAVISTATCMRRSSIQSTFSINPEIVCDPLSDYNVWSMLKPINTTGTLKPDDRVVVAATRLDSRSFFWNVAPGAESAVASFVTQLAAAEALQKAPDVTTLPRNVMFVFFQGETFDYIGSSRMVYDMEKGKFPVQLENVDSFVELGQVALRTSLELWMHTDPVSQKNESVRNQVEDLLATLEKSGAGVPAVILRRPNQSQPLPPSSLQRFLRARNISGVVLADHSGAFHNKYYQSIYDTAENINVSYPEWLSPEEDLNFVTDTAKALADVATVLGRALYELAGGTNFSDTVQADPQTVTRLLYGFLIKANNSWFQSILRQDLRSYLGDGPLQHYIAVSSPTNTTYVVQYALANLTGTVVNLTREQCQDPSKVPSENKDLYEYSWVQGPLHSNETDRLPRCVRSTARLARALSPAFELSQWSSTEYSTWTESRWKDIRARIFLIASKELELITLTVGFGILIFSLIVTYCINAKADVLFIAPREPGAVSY
T1 sequence (Q9NZ42 whole entry, other chains not shown, further chain): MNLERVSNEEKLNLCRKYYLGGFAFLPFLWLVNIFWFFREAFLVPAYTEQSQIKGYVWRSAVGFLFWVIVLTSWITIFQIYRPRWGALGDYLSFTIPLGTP
Description: To characterize the direct effect of two γ-secretase inhibitors cpd E and DAPT on APP/Notch cleavage, a conventional in vitro γ-secretase assay to quantify their inhibitory potency was used. The incubation of γ-secretase complex with purified substrates at 37°C for 4 hr was followed by Western Blot (WB) to determine the quantity of newly generated NICD. A newly generated band that corresponds to the predicted size of the NICD-Flag was detected (Fig. 1A and 1B).
Figure 1 Generation of NICD and Aβ from purified APP and Notch substrate C100 and N100 in an in vitro γ-secretase activity assay. The E. coli generated APP- and Notch-based, 100-residue γ-secretase substrates C100-Flag and N100-Flag were mixed with the membrane vesicles solubilized in CHAPSO after DMSO or compounds were added. The mixture was incubated at 37°C for 4 hours. A. A dose-dependent inhibition of NICD generation by DAPT. Generation of NICD was detected by Western blot (WB) with antibody 1744 specifically recognizing N-terminus of NICD. B. Generation of NICD was inhibited in the presence of 100 nM of cpd E. C. Levels of NICD determined by WB were quantified by densitometry (dotted line). Levels of Aβ generated from the γ-secretase cleavage of C100 in the presence of DAPT were determined by ELISA (solid line). […] D. NICD (dotted line) and Aβ (solid line) generation in the presence of cpd E were compared.
The same preparation of γ-secretase complex was mixed with C100Flag followed by ELISA to quantify the levels of newly generated Aβ.
The E. coli generated APP- and Notch-based, 100-residue γ-secretase substrates C100-Flag and N100-Flag were purified as previously described. C100-Flag substrate contains an initiating methionine, the 99 C-terminal residues of APP that start at the […], and a Flag tag. N100-Flag substrate contains a similar initiating methionine, 99 amino acids that start at the TACE cleavage site, and a Flag tag. The membrane vesicles were solubilized in 1% CHAPSO-HEPES and diluted in a final concentration of 0.2% CHAPSO-HEPES. Phosphatidylethanolamine (PE) and phosphatidylcholine (PC) were added to the final concentration of 0.02% PE and 0.08% PC. After adding DMSO or test compounds to the solubilized γ-secretase complex, substrate C100-Flag or N100-Flag was added to the mixture, then followed by incubation at 37°C for 4 hours. Two compounds have been used in this study, compound E (cpd E), {(S,S)-2-[2-(3,5-Difluorophenyl)-acetylamino]-N-(1-methyl-2-oxo-5-phenyl-2,3-dihydro-1H-benzo [e] [1,4] diazepin-3-yl)-propionamide} [57] and DAPT {N-[N-(3,5-Difluorophenacetyl-L-alanyl)]-S-phenylglycine t-Butyl Ester} [79]. Cpd E was provided by Dr. Michael Wolfe.
Sandwich ELISAs for Aβ were performed as described. The capture antibodies, 2G3 (to Aβ residues 33–40) and 4G8 (to Aβ residues 17–24), were used for Aβ40 and Aβ total species, respectively. The detecting antibodies were biotinylated 82E1 (to Aβ residues 1–16) for Aβ1–40/total or biotinylated 266 for Aβx-40 species. The use of mid-region and C-terminal capturing antibodies and N-terminal detecting antibody for chimeric "Notch-Aβ-like" peptide (Nβ*) has been documented. The combination of several capture/detecting antibodies are use to measure Aβ and Nβ* derived from different precursors. The capture antibody 2G3 and detecting antibody 82E1 were used for measuring Nβ* from APP-α-Notch expressing cells. Since the APP-α-NOTCH is the fusion protein with its juxtamembrane portion of the APP ectodomain (the α-secretase cleavage region) replaced by the corresponding sequence in Notch, the epitopes in APP sequence could still be recognized by 2G3 (C-terminus) and 82E1 (N-terminus). The capture antibody 4G8 and detecting antibody 82E1 were used for measuring Nβ* from APP-m-Notch expressing cells. […]

| SMILES | embryo morphology, tail curvature (zebrafish embryos) | embryo morphology, tail curvature at 4 dpf (zebrafish embryos) | γ-secretase cleavage of APP in vitro at low concentrations [1] | Aβ production in vitro ([1]; 10 and 100 μM) | IC50 ([1]; read-out: concentration inhibiting levels of Aβ to 50% in vitro) | Aβ production in vitro, dose response [1] | embryo morphology, tail curvature (zebrafish embryos; listed as Cpd E) | Aβ generation from APP C100 in vitro ([1]; 100 nM (0.1 μM)) | IC50 ([1]; read-out: IC50 for Aβ generation (levels of Aβ reduced to 50%) in vitro) |
| --- | --- | --- | --- | --- | --- | --- | --- | --- | --- |
| C[C@H](NC(=O)Cc1cc(F)cc(F)c1)C(=O)N[C@H](C(=O)OC(C)(C)C)c1ccccc1 [DAPT, N-[N-(3,5-Difluorophenacetyl-L-alanyl)]-S-phenylglycine t-Butyl Ester] | much shorter and curved tail; also recorded: caused curved trunk and tails; also recorded: curvature of zebrafish tail was found | continued to show the curvature of the tails | did not inhibit | complete depletion of Aβ production | 1000 nM | dose-dependent reduction of Aβ production | – | – | – |
| C[C@H](NC(=O)Cc1cc(F)cc(F)c1)C(=O)N[C@H]1N=C(c2ccccc2)c2ccccc2N(C)C1=O [cpd E, (S,S)-2-[2-(3,5-Difluorophenyl)-acetylamino]-N-(1-methyl-2-oxo-5-phenyl-2,3-dihydro-1H-benzo [e] [1,4]diazepin-3-yl)-propionamide] | lack of dramatic phenotypic alteration | minor effect on embryo morphology | selectively inhibited the γ-secretase cleavage of APP | – | – | dose-dependent reduction of Aβ production | did not show any curvature | could almost deplete any Aβ generation; also recorded: completely blocked Aβ generation | 1 nM |
